From PMC5384001 (Scientific Reports, 2017)
Substitutions are numbered along the chain they refer to. “And” between values parts separate entries of the source, which are not always exact repeats. Identical values can stand only once.

Legend:
[1] = molecular target: T1, GluD2-Lc (Rattus norvegicus, UniProt Q63226, A654T); test: Two-electrode voltage clamp in Xenopus oocytes, inhibition of spontaneous currents; type: cell-based
T1 construct: the function of full-length receptors as well, we introduced them into the GluD2 lurcher mutant (GluD2-Lc); expressed in transfected cells; host or cells: Xenopus laevis oocytes injected with cRNA
T1 sequence (Q63226 24-1007 A654T): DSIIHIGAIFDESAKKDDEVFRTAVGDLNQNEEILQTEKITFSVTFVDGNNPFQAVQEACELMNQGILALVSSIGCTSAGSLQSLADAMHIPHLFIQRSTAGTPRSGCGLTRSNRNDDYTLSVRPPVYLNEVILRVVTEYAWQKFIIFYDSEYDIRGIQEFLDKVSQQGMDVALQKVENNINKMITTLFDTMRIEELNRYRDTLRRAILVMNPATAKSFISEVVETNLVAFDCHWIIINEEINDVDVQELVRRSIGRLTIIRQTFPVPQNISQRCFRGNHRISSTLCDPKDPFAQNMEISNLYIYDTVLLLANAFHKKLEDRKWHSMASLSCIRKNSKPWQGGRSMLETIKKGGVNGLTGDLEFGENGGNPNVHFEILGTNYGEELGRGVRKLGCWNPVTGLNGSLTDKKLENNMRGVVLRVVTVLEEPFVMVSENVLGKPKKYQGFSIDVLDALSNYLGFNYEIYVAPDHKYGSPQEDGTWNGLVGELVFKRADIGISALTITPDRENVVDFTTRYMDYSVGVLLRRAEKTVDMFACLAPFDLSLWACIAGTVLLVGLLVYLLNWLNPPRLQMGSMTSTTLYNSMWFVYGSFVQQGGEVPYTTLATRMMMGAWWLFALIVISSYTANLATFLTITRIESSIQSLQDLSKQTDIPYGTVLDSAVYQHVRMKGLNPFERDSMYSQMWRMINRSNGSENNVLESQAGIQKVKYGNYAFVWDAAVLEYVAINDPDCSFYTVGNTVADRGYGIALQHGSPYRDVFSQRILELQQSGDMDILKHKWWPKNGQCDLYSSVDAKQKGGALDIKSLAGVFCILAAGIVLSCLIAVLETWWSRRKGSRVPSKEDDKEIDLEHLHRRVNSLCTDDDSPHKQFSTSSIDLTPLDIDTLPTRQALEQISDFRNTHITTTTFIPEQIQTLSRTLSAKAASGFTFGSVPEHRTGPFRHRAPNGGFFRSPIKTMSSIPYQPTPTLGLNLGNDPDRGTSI
Text: (§1) All cDNAs for expression in Xenopus oocytes were cloned into the vector pSGEM[30]. Point mutants of GluD2-Lc were constructed by overlap extension PCR with mutagenic oligonucleotide primers. The GluD2-Lc-(H)GluN1 chimera was constructed by transferring the S1- and S2-encoding sequences from GluD2-LBD-(H)GluN1 to GluD2-Lc via overlap extension PCR using tail primers. The S1 and S2 sequences were transferred separately, yielding GluD2-Lc-(HS1)GluN1 and GluD2-Lc-(HS2)GluN1 constructs. GluD2-Lc-(H)GluN1 was then produced from these by another overlap extension PCR. Complementary RNA (cRNA) for injection into oocytes was synthesised from 1 μg of linearised template DNA with the mMESSAGE mMACHINE in vitro transcription kit (Ambion, Austin, TX, USA).
(§2) Oocytes were obtained by surgically removing parts of the ovaries from Xenopus laevis (Nasco, Fort Atkinson, WI, USA) anaesthetised with 1.5 g/L 3-aminobenzoic acid ethylester (Sigma, Taufkirchen, Germany). […] Oocytes were injected with 11 ng cRNA (10 ng of each cRNA for co-expression of GluN1 and GluN2A) using a nanoliter injector (WPI, Sarasota, FL, USA). Four days after cRNA injection, current responses were recorded under voltage clamp at –70 mV with a Turbo Tec-10CD amplifier (npi electronic, Tamm, Germany) controlled by Patchmaster software (HEKA, Lambrecht, Germany). Currents were filtered with a 20 Hz low-pass filter and then digitised with a sampling rate of 50 Hz. Recording electrodes were pulled from borosilicate glass (Hilgenberg, Malsfeld, Germany) with an L/M-3P-A vertical pipette puller (List-Medical), filled with 3 M KCl, and had resistances of 0.5–5 MΩ (voltage electrode) or 0.5–1.5 MΩ (current electrode). Recordings were performed in a 50 μL chamber under constant superfusion with extracellular solution at a flow rate of 3–5 mL/min. […] Finally, Ba-NFR and then NMDGR were applied again to check for reversibility.

[2] = molecular target: T2, GluD2-Lc-(H)GluN1 (Rattus norvegicus, UniProt Q63226, A654T/A766F/D542Y/D767R/N763E/R768S/S544G/T764L/V761T/V765F/Y543Q); test: as above; type: cell-based
T2 construct: the function of full-length receptors as well, we introduced them into the GluD2 lurcher mutant (GluD2-Lc); expressed in transfected cells; host or cells: Xenopus laevis oocytes injected with cRNA
T2 sequence (Q63226 24-1007 D542Y/Y543Q/S544G/A654T/V761T/N763E/T764L/V765F/A766F/D767R/R768S): T1 sequence (Q63226 24-1007 A654T) with D519Y, Y520Q, S521G, V738T, N740E, T741L, V742F, A743F, D744R, R745S
Text: as §1, §2

[3] = fraction of spontaneous current inhibited by saturating D-serine

N[C@H](CO)C(=O)O [D-serine]
D-serine efficacy Mean ± SEM [1, 3]: 46% and 46.2 ± 1.9%
maximal, absolute, D-serine-induced steady-state inhibition of spontaneous currents ([1]; n = 20): 222 ± 36 nA
D-serine concentration of maximum inhibition of spontaneous currents ([2]; bell-shaped concentration–response curve): 10 µM
D-serine efficacy Mean ± SEM [2, 3]: 13% and 12.9 ± 0.8%
maximal, absolute, D-serine-induced steady-state inhibition of spontaneous currents ([2]; n = 30): 53 ± 8 nA
